In PubChem BioAssay AID1963829 (Molecular Pharmacology Branch, DTP, NCI, 2024):

Test system: 935938-334-R-J1-PDC complex spheroid viability
Assay: Anticancer human tumor 935938-334-R-J1-PDC patient-derived small intestine adenocarcinoma cell line growth inhibition [POLQ]
Settings: for IC50: curve of first compound; for viability, T/C: stronger effect = lower value
How it was run: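 Complex spheroid viability model combining PDC tumour cells with endothelial (HUVEC) and MSC stromal cells. Novobiocin, ART-558 or RP6685 were tested singly and in combination with standard and investigational anticancer drugs. Each was titrated in half-log steps from near clinical Cmax, or from 10 microM where Cmax was unknown.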

[1] = second compound 0.0316 µM, first compound 0.0316 µM
[2] = second compound 0.0316 µM, first compound 0.1 µM
[3] = second compound 0.0316 µM, first compound 0.316 µM
[4] = second compound 0.0316 µM, first compound 1 µM
[5] = second compound 0.0316 µM, first compound 3.16 µM
[6] = second compound 0.0316 µM, first compound 10 µM
[7] = second compound 0.1 µM, first compound 0.0316 µM
[8] = second compound 0.1 µM, first compound 0.1 µM
[9] = second compound 0.1 µM, first compound 0.316 µM
[10] = second compound 0.1 µM, first compound 1 µM
[11] = second compound 0.1 µM, first compound 3.16 µM
[12] = second compound 0.1 µM, first compound 10 µM
[13] = second compound 0.316 µM, first compound 0.0316 µM
[14] = second compound 0.316 µM, first compound 0.1 µM
[15] = second compound 0.316 µM, first compound 0.316 µM
[16] = second compound 0.316 µM, first compound 1 µM
[17] = second compound 0.316 µM, first compound 3.16 µM
[18] = second compound 0.316 µM, first compound 10 µM
[19] = second compound 1 µM, first compound 0.0316 µM
[20] = second compound 1 µM, first compound 0.1 µM
[21] = second compound 1 µM, first compound 0.316 µM
[22] = second compound 1 µM, first compound 1 µM
[23] = second compound 1 µM, first compound 3.16 µM
[24] = second compound 1 µM, first compound 10 µM
[25] = second compound 3.16 µM, first compound 0.0316 µM
[26] = second compound 3.16 µM, first compound 0.1 µM
[27] = second compound 3.16 µM, first compound 0.316 µM
[28] = second compound 3.16 µM, first compound 1 µM
[29] = second compound 3.16 µM, first compound 3.16 µM
[30] = second compound 3.16 µM, first compound 10 µM
[31] = second compound 10 µM, first compound 0.0316 µM
[32] = second compound 10 µM, first compound 0.1 µM
[33] = second compound 10 µM, first compound 0.316 µM
[34] = second compound 10 µM, first compound 1 µM
[35] = second compound 10 µM, first compound 3.16 µM
[36] = second compound 10 µM, first compound 10 µM
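Also: spheroids exposed to drugs for seven days before viability read.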
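For viability, T/C in this document: 100% = DMSO vehicle control wells.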

CC(C)n1c(=O)n(C)c2cnc3cc(F)c(-c4ccc(OCCCN5CCCCC5)nc4)cc3c21 + COC1C(OC(N)=O)C(O)C(Oc2ccc3c(O)c(NC(=O)c4ccc(O)c(CC=C(C)C)c4)c(=O)oc3c2C)OC1(C)C was tested, and the IC50 (second compound 0.0316 µM) was over 10 µM, the IC50 (second compound 0.1 µM) was over 10 µM and the IC50 (second compound 0.316 µM) was over 10 µM. For the same molecule, the IC50 (second compound 1 µM) was over 10 µM, the IC50 (second compound 3.16 µM) was over 10 µM and the IC50 (second compound 10 µM) was over 10 µM. The viability, T/C [1] was 124%, the viability, T/C [2] was 124% and the viability, T/C [3] was 108%. For the same molecule, the viability, T/C [4] was 95.4%, the viability, T/C [5] was 138% and the viability, T/C [6] was 133%. It also gave a viability, T/C [7] of 123%, a viability, T/C [8] of 109% and a viability, T/C [9] of 79%. The viability, T/C [10] was 135%, the viability, T/C [11] was 139% and the viability, T/C [12] was 92.8%. The viability, T/C [13] was 98%, the viability, T/C [14] was 105% and the viability, T/C [15] was 118%. The viability, T/C [16] was 119%, the viability, T/C [17] was 108% and the viability, T/C [18] was 85.2%. The viability, T/C [19] was 81.3%, the viability, T/C [20] was 117% and the viability, T/C [21] was 99.3%. The viability, T/C [22] was 113%, the viability, T/C [23] was 104% and the viability, T/C [24] was 120%. For the same molecule, the viability, T/C [25] was 95%, the viability, T/C [26] was 115% and the viability, T/C [27] was 89.6%. The viability, T/C [28] was 117%, the viability, T/C [29] was 106% and the viability, T/C [30] was 90.3%. It also gave a viability, T/C [31] of 94.4%, a viability, T/C [32] of 135% and a viability, T/C [33] of 122%. For the same molecule, the viability, T/C [34] was 160%, the viability, T/C [35] was 133% and the viability, T/C [36] was 101%.
Work on CC1COCCN1c1cc(C2(O)CC3CCC(C2)O3)c2cnn(-c3ccn[nH]3)c2n1 (stereo not drawn) + Cc1cccc(N(C)C(=O)C2C(O)CCN2c2nc(C)cc(C(F)(F)F)c2C#N)c1 yielded an IC50 (second compound 0.0316 µM) of 0.372 µM, an IC50 (second compound 0.1 µM) of 0.262 µM and an IC50 (second compound 0.316 µM) of 0.331 µM. The IC50 (second compound 1 µM) was 0.215 µM, the IC50 (second compound 3.16 µM) was 0.198 µM and the IC50 (second compound 10 µM) was 0.155 µM. It also gave a viability, T/C [1] of 84%, a viability, T/C [2] of 76.2% and a viability, T/C [3] of 52.9%. It also gave a viability, T/C [4] of 29.1%, a viability, T/C [5] of 18.7% and a viability, T/C [6] of 13.8%. For the same molecule, the viability, T/C [7] was 101%, the viability, T/C [8] was 90.3% and the viability, T/C [9] was 40.1%. For the same molecule, the viability, T/C [10] was 25.8%, the viability, T/C [11] was 17.7% and the viability, T/C [12] was 9.91%. It also gave a viability, T/C [13] of 66.2%, a viability, T/C [14] of 92.2% and a viability, T/C [15] of 51.3%. It also gave a viability, T/C [16] of 24.8%, a viability, T/C [17] of 18% and a viability, T/C [18] of 13.3%. It also gave a viability, T/C [19] of 77.7%, a viability, T/C [20] of 74.5% and a viability, T/C [21] of 37%. The viability, T/C [22] was 25.3%, the viability, T/C [23] was 18.9% and the viability, T/C [24] was 12.5%. For the same molecule, the viability, T/C [25] was 90.6%, the viability, T/C [26] was 64.5% and the viability, T/C [27] was 40.2%. It also gave a viability, T/C [28] of 23.9%, a viability, T/C [29] of 20.6% and a viability, T/C [30] of 12.3%. For the same molecule, the viability, T/C [31] was 70.3%, the viability, T/C [32] was 56.8% and the viability, T/C [33] was 39.6%. It also gave a viability, T/C [34] of 23.2%, a viability, T/C [35] of 17.2% and a viability, T/C [36] of 9.31%.
C=CC(=O)N1CCN(c2nc(=O)n(-c3c(C)ccnc3C(C)C)c3nc(-c4c(O)cccc4F)c(F)cc23)C(C)C1 (stereo not drawn) + Cc1cccc(N(C)C(=O)C2C(O)CCN2c2nc(C)cc(C(F)(F)F)c2C#N)c1 was tested, and the IC50 (second compound 0.0316 µM) was over 10 µM, the IC50 (second compound 0.1 µM) was over 10 µM and the IC50 (second compound 0.316 µM) was over 10 µM. For the same molecule, the IC50 (second compound 1 µM) was over 10 µM, the IC50 (second compound 3.16 µM) was over 10 µM and the IC50 (second compound 10 µM) was over 10 µM. For the same molecule, the viability, T/C [1] was 94.3%, the viability, T/C [2] was 98.4% and the viability, T/C [3] was 77%. For the same molecule, the viability, T/C [4] was 101%, the viability, T/C [5] was 88.1% and the viability, T/C [6] was 109%. For the same molecule, the viability, T/C [7] was 116%, the viability, T/C [8] was 97.8% and the viability, T/C [9] was 91.3%. The viability, T/C [10] was 113%, the viability, T/C [11] was 90.4% and the viability, T/C [12] was 70.1%. The viability, T/C [13] was 76.7%, the viability, T/C [14] was 80.9% and the viability, T/C [15] was 105%. For the same molecule, the viability, T/C [16] was 100%, the viability, T/C [17] was 81.2% and the viability, T/C [18] was 106%. The viability, T/C [19] was 85.8%, the viability, T/C [20] was 111% and the viability, T/C [21] was 82.7%. The viability, T/C [22] was 108%, the viability, T/C [23] was 92.2% and the viability, T/C [24] was 99.7%. The viability, T/C [25] was 96%, the viability, T/C [26] was 95% and the viability, T/C [27] was 74.6%. For the same molecule, the viability, T/C [28] was 96.3%, the viability, T/C [29] was 102% and the viability, T/C [30] was 79.1%. The viability, T/C [31] was 77.8%, the viability, T/C [32] was 80.6% and the viability, T/C [33] was 64.8%. The viability, T/C [34] was 94.9%, the viability, T/C [35] was 118% and the viability, T/C [36] was 107%.
Work on Nc1ccn(C2OC(CO)C(O)C2(F)F)c(=O)n1 (stereo not drawn) + Cc1cccc(N(C)C(=O)C2C(O)CCN2c2nc(C)cc(C(F)(F)F)c2C#N)c1 yielded an IC50 (second compound 0.0316 µM) of under 0.0316 µM, an IC50 (second compound 0.1 µM) of under 0.0316 µM and an IC50 (second compound 0.316 µM) of under 0.0316 µM. For the same molecule, the IC50 (second compound 1 µM) was under 0.0316 µM, the IC50 (second compound 3.16 µM) was under 0.0316 µM and the IC50 (second compound 10 µM) was under 0.0316 µM. The viability, T/C [1] was 40.4%, the viability, T/C [2] was 27.8% and the viability, T/C [3] was 23.1%. For the same molecule, the viability, T/C [4] was 21%, the viability, T/C [5] was 18.2% and the viability, T/C [6] was 16.3%. It also gave a viability, T/C [7] of 32.9%, a viability, T/C [8] of 29.7% and a viability, T/C [9] of 21.4%. The viability, T/C [10] was 21.1%, the viability, T/C [11] was 20.2% and the viability, T/C [12] was 21.2%. It also gave a viability, T/C [13] of 40.2%, a viability, T/C [14] of 30.9% and a viability, T/C [15] of 23.2%. The viability, T/C [16] was 23.4%, the viability, T/C [17] was 18.8% and the viability, T/C [18] was 18.1%. The viability, T/C [19] was 37.4%, the viability, T/C [20] was 27.7% and the viability, T/C [21] was 26.6%. For the same molecule, the viability, T/C [22] was 23.2%, the viability, T/C [23] was 22.8% and the viability, T/C [24] was 19.9%. The viability, T/C [25] was 37.3%, the viability, T/C [26] was 33.8% and the viability, T/C [27] was 24.8%. The viability, T/C [28] was 19.2%, the viability, T/C [29] was 23.2% and the viability, T/C [30] was 20.3%. For the same molecule, the viability, T/C [31] was 39.2%, the viability, T/C [32] was 35.4% and the viability, T/C [33] was 29.2%. The viability, T/C [34] was 23.3%, the viability, T/C [35] was 26.2% and the viability, T/C [36] was 19.2%.
